According to patent publication US20200079786A1, “ANALOGS OF […] AS SOLUBLE EPOXIDE HYDROLASE INHIBITORS” (UNIVERSITAT DE BARCELONA, priority 2015, published 2020):

Key:
[1] = target: T1, recombinant human sEH (Homo sapiens, UniProt P34913); experiment: In vitro determination of sEH inhibition activity (fluorescent assay, PHOME substrate); format: biochemical; settings: mean ± Standard Error, min. three replicates, read-out: IC50 (nM) ± SE, sEH inhibition activity
T1 construct: purchased Cayman Chemical 10011669
T1 sequence (P34913 1-555): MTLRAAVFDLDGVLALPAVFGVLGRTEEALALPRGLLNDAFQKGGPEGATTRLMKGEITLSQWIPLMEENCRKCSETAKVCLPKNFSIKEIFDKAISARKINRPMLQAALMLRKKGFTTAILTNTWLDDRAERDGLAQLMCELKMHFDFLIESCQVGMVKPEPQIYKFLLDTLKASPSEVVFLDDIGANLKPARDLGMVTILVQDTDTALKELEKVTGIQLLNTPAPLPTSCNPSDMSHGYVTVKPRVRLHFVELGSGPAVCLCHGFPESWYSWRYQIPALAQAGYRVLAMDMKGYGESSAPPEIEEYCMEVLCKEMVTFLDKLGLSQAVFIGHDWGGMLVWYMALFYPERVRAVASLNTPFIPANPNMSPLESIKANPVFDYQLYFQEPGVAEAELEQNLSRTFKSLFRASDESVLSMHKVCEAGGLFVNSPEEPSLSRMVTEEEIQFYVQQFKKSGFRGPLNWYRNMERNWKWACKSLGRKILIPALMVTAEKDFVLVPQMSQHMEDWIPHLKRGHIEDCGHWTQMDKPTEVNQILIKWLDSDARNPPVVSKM
Procedure: 3-(Phenyl-oxiranyl)-acetic acid cyano-(6-methoxy-naphthalen-2-yl)-methyl ester (PHOME; from Cayman Chemical, item number 10009134; CAS 1028430-42-3); cf. N. M. Wolf et al., Anal. Biochem. 2006, vol. 355, pp. 71-80.
Solutions: • Assay buffer: Bis/Tris HCl 25 mM pH 7.0 containing 0.1 mg/mL of bovine serum albumin (BSA). • PHOME at 200 μM in DMSO. • Solution of recombinant human sEH (Cayman Chemical, item number 10011669), diluted with assay buffer. • Inhibitors dissolved in DMSO at appropriated concentrations.
In a black 96-well plate (Greiner Bio-One, item number 655900), fill the background wells with 90 μL and the positive control and inhibitor wells with 85 μL of assay buffer. Add 5 μL of DMSO to background and positive control wells, and then add 5 μL of inhibitor solution in inhibitor wells. Add 5 μL of the solution of hsEH to the positive control and inhibitor wells and mix several time. Prepare a 1/21 dilution of the solution of PHOME with assay buffer according to final volume required, and then add 105 μL of each well. Shake carefully the plate for 10 seconds and incubate for 5 minutes at room temperature. […] Results were obtained by regression analysis from at least three data points in a linear region of the curve. IC50 values are average of minimum three independent replicates.

[2] = target: T2, CYP1A2 (Homo sapiens, UniProt P05177); experiment: Inhibition of human cytochrome P450 CYP1A2; format: in vitro ADME; settings: human cytochrome P450 enzyme
T2 sequence (P05177 1-516): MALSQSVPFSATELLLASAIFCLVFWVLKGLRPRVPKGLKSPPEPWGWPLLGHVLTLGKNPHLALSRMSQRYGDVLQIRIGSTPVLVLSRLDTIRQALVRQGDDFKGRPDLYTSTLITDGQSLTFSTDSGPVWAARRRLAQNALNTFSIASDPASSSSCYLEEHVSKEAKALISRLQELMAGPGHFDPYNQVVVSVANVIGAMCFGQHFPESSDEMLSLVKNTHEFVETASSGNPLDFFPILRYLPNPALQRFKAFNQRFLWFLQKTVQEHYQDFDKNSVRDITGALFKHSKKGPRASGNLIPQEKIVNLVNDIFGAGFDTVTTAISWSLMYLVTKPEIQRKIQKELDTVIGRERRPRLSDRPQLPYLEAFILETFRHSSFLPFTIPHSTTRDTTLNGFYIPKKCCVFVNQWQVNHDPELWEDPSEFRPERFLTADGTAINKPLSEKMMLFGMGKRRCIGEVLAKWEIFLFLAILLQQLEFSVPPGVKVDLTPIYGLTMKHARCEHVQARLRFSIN
Description: The epoxidation of arachidonic acid (AA) by selected cytochrome P450 epoxygenases generates epoxyeicosatrienoic acids (EETs). These EETs show anti-inflammatory, antihypertensive, analgesic, angiogenic, and antiatherosclerotic effects in rodents and humans. sEH converts EETs to their corresponding dihydroxyeicosatrienoic acids (DHETs), whereby the biological effects of EETs are diminished, eliminated, or altered. Among the P450 enzymes, it is known that CYP2C19 and CYP1A2 have the highest formation rate of EETs from AA (cf. A. A. El-Sherbeni et al. “Repurposing resveratrol and fluconazole to modulate human cytrochrome P450-mediated arachidonic acid metabolites”, Molecular Pharmaceutics 2016, vol. 13, pp. 1278-1288). For this reason, a highly desirable aspect of any new sEH inhibitor is selectivity in front of CYP2C19 and CYP1A2.

[3] = Parallel artificial membrane permeation assay for blood-brain barrier (PAMPA-BBB); format: in vitro ADME, porcine; settings: PBS:EtOH (70:30)
Procedure: The in vitro permeability (Pe) of the test compounds through lipid extract of porcine brain membrane was determined. Assayed compounds were tested using a mixture of PBS:EtOH (70:30). […] From this equation and taking into account the limits established by Di et al. for BBB permeation, the ranges of permeability were established, as follows.

[4] = Determination of water solubility (nephelometry); format: physicochemical; settings: aqueous with cosolvent or surfactant or cyclodextrin, kinetic from dmso stock; 5% DMSO: 95% PBS buffer, 37° C., read after 2 and 4 h; read-out: S (solubility)

O=C(N[C@]12CC3C[C@@H](C[C@H](C3)O1)C2)N[C@H]1CC[C@H](Oc2ccc(C(=O)O)cc2)CC1 [Ig, trans-1-(2-oxaadamantan-1-yl)-3-[4-(4-carboxyphenoxy)cyclohexyl]urea]
IC50 [1]: 13.4 ± 4 nM | inhibition at 1 µM [2]: ≤ 6% | CNS prediction [3]: CNS+ (Compounds of high BBB permeation (CNS+): Pe (10^6 cm s^−1)>5.181) | solubility [4]: > 100 µM
